Data from BindingDB's records for patent US20250034165 (Chia Tai Tianqing Pharmaceutical Group, 2025).

Columns and labels:
[1] = target: Epidermal growth factor receptor [T790M,L858R] (Homo sapiens, UniProt P00533, L858R/T790M); assay: Inhibitory Activity for EGFR (L858R/T790M) Kinase
Experimental: (§1) A 50 ng/μL EGFR (L858R/T790M, Carna) stock solution was diluted with a kinase buffer (50 mM HEPES, 10 mM MgCl2, 2 mM DTT, 1 mM EGTA, 0.01% Tween 20), and 6 μL of 1.67× working solution at 0.004175 ng/μL (final concentration: 0.0025 ng/μL) was added to each well. Different compounds dissolved in DMSO were added to wells using a nanoliter pipettor, resulting in the final concentrations of the compounds of 10 nM to 0.0024 nM (4-fold gradient, 7 concentrations in total), and blank control wells (without enzyme) and negative control wells (with enzyme, plus vehicle DMSO) were set, 2 replicate wells for each concentration. After enzyme was reacted with the compound or vehicle for 30 min, 5×ATP at 25 μM (final concentration: 5 μM, Sigma) prepared with a kinase buffer was mixed with 5× substrate at 0.5 μM (final concentration: 0.1 μM, ULight-poly GT, PerkinElmer) at a ratio of 1:1 (v:v), and the mixture was added to each well at 4 μL/well. After being sealed with a film, the plate was incubated at room temperature for 2 h, and then 5 μL of 4×EDTA at 40 mM (final concentration: 10 mM) was added to each well. After the plate was incubated for 5 min at room temperature, 5 μL of 4× detection reagent at 8 nM (final concentration: 2 nM, Eu-anti-phospho-tyrosine antibody, PerkinElmer) was added to each well. After being incubated at room temperature for 1 h, the plate was read using a PerkinElmer Envision multi-mode microplate reader (excitation: 320 nm, emission: 665 nm), and IC50 was calculated by four-parameter fitting.

[2] = target: Epidermal growth factor receptor (EGFR)(L858R)(T790M) (Homo sapiens, UniProt P00533, L858R/T790M); assay: Inhibitory Activity for EGFR (L858R/T790M) Kinase
Chain of Epidermal growth factor receptor (EGFR)(L858R)(T790M) (P00533 25-1210 T790M/L858R limits assumed): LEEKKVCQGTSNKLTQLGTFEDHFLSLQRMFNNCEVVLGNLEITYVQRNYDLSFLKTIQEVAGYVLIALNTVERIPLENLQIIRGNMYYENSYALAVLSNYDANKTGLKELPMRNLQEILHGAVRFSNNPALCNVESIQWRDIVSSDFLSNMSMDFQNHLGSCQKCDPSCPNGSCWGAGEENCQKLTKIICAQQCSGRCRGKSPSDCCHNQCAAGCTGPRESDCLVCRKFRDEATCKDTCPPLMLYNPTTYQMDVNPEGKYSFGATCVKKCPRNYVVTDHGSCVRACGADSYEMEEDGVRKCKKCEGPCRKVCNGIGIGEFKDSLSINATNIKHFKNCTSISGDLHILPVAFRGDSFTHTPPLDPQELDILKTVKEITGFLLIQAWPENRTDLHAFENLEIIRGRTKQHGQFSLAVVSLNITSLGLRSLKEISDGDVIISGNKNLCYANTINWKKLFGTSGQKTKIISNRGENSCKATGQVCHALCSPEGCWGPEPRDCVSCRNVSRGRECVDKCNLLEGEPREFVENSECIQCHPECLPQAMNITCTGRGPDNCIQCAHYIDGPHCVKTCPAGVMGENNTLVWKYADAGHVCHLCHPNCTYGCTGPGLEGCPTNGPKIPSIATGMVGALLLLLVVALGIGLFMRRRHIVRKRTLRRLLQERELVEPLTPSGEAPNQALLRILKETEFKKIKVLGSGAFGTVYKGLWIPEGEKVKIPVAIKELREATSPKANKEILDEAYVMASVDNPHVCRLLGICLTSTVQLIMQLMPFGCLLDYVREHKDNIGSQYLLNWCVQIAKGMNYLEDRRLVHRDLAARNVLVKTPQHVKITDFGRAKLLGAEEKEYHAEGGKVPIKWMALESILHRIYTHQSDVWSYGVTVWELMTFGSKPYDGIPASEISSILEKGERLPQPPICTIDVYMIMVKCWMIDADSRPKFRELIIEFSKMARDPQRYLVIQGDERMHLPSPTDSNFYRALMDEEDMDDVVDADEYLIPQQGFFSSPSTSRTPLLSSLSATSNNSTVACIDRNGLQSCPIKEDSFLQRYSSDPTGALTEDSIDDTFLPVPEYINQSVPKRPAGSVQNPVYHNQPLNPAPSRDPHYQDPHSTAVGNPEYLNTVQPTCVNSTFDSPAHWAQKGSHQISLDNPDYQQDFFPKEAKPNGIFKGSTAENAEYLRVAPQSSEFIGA
Experimental: as §1

[3] = target: Epidermal growth factor receptor [T790M,C797S,L858R] (UniProt P00533, C797S/L858R/T790M); assay: Inhibitory Activity for EGFR (L858R/T790M/C797S) Kinase
Chain of Epidermal growth factor receptor [T790M,C797S,L858R] (P00533 25-1210 T790M/C797S/L858R limits assumed): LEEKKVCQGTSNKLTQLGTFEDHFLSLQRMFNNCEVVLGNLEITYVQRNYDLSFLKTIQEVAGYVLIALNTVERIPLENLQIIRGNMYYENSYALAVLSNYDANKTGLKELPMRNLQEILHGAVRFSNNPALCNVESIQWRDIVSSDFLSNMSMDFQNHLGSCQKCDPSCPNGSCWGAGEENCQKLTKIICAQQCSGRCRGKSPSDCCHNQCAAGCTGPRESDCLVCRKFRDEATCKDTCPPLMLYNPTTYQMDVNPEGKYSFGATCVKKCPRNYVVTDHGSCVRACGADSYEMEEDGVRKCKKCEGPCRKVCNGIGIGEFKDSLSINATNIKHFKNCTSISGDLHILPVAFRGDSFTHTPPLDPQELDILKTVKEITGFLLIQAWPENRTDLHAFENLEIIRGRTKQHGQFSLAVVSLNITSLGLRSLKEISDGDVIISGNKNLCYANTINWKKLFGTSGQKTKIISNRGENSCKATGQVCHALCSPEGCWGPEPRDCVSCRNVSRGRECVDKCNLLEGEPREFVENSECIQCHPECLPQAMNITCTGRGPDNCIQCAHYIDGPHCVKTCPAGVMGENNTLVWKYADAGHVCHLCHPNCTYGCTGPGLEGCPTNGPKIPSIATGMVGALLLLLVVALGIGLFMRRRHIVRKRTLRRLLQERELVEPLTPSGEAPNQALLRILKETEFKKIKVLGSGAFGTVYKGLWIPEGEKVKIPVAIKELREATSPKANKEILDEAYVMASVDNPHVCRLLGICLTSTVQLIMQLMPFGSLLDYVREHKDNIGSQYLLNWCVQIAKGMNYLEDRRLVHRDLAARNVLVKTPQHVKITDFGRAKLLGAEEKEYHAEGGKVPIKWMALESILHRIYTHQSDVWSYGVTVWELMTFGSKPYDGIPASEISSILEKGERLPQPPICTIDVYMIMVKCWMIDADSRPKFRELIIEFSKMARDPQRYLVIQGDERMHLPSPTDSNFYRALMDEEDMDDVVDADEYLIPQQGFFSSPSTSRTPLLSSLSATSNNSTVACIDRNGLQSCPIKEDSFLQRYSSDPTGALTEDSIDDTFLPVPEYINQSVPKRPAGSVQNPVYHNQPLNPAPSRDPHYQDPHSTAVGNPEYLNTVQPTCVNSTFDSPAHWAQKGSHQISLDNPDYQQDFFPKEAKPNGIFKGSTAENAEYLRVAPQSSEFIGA
Experimental: as §1, with “(L858R/T790M/C797S, BPS)” for “(L858R/T790M, Carna)”, “0.00167” for “0.004175”, “0.001” for “0.0025”

[4] = target: Epidermal growth factor receptor (Homo sapiens, UniProt P00533); assay: Inhibitory Activity for EGFR (WT) Kinase
Chain of Epidermal growth factor receptor (P00533 whole entry): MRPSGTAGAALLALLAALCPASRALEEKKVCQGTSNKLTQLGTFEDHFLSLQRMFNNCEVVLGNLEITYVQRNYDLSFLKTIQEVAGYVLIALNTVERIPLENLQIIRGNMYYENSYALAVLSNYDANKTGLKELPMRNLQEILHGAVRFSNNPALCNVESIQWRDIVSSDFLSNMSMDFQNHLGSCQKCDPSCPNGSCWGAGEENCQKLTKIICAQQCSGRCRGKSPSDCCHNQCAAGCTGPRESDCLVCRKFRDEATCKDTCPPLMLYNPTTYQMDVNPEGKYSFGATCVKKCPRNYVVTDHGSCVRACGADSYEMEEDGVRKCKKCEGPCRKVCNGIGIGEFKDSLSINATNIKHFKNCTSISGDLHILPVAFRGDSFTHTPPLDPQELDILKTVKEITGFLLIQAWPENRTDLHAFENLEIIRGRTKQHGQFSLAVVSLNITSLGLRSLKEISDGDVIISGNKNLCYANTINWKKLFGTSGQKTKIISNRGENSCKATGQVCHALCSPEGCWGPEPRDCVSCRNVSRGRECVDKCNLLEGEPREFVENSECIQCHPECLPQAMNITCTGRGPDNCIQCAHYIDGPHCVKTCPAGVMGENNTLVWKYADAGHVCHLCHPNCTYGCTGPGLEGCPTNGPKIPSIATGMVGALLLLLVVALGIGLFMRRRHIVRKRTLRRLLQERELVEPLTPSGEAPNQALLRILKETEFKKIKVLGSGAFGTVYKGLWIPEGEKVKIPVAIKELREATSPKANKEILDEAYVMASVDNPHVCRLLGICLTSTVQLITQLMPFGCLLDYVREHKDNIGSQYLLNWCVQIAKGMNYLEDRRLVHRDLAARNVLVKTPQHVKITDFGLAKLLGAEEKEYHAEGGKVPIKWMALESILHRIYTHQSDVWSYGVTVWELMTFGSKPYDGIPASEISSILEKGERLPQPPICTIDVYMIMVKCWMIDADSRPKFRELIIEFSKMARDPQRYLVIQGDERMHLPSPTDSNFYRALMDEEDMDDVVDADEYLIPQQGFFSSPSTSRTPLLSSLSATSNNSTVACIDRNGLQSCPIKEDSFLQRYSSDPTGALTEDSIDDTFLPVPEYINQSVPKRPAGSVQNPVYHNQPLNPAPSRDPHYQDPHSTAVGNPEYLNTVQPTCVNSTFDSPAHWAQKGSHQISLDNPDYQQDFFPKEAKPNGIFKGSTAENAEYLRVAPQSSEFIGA
Experimental: A 50 ng/μL EGFR (WT, Carna) stock solution was diluted with a kinase buffer (50 mM HEPES, 10 mM MgCl2, 2 mM DTT, 1 mM EGTA, 0.01% Tween 20), and 6 μL of 1.67× working solution at 0.005 ng/μL (final concentration: 0.003 ng/μL) was added to each well. Different compounds dissolved in DMSO were added to the wells using a nanoliter pipettor, resulting in the final concentrations of the compounds of 100 nM to 0.0244 nM (4-fold gradient for 7 concentrations in total), and blank control wells (without enzyme) and negative control wells (with enzyme, plus vehicle DMSO) were set, 2 replicate wells for each concentration. After enzyme was reacted with the compound or vehicle for 30 min, 5×ATP at 25 μM (final concentration: 5 μM, Sigma) prepared with a kinase buffer was mixed with 5× substrate at 0.5 μM (final concentration: 0.1 μM, ULight-poly GT, PerkinElmer) at a ratio of 1:1 (v:v), and the mixture was added to each well at 4 μL/well. After being sealed with a film, the plate was incubated at room temperature for 2 h, and then 5 μL of 4×EDTA at 40 mM (final concentration: 10 mM) was added to each well. After the plate was incubated for 5 min at room temperature, 5 μL of 4× detection reagent at 8 nM (final concentration: 2 nM, Eu-anti-phospho-tyrosine antibody, PerkinElmer) was added to each well.

Chain of Epidermal growth factor receptor [T790M,L858R] (P00533 25-1210 T790M/L858R limits assumed): as the sequence (P00533 25-1210 T790M/L858R limits assumed) above

An IC50 [1] of 0.16 nM was found for `[2H]C([2H])([2H])N(C[C@H](C)Nc1ccc2c(c1)N1C[C@H](C3CC3)CCCOc3c(cnn3C)-c3cc(cc(C)n3)C(=O)/N=C\1N2)C([2H])([2H])[2H]` [US20250034165, Example 123] in this work.
An IC50 [2] of 0.017 nM, an IC50 [3] of 0.022 nM and an IC50 [4] of 0.5 nM were found for `CCN1CCC(Nc2ccc3c(c2)N2C[C@H](C4CC4)CCCOc4c(cnn4C)-c4cc(cc(C)n4)C(=O)/N=C/2N3)CC1` [US20250034165, Example 55] in this work.
An IC50 [2] of 0.04 nM, an IC50 [3] of 0.023 nM and an IC50 [4] of 0.79 nM were found for `Cc1cc2cc(n1)-c1cnn(C)c1OCCC[C@@H](C1CC1)CN1/C(=N/C2=O)Nc2ccc(NCCN3CCCCC3)cc21` [US20250034165, Example 83] in this work.
An IC50 [2] of 0.011 nM, an IC50 [3] of 0.014 nM and an IC50 [4] of 0.72 nM were found for `Cc1cc2cc(n1)-c1cnn(C)c1OCCC[C@@H](C1CC1)CN1/C(=N/C2=O)Nc2cc(NCCCCN)ccc21` [US20250034165, Example 53] in this work.
An IC50 [2] of 0.027 nM, an IC50 [3] of 0.037 nM and an IC50 [4] of 1.4 nM were found for `Cc1cc2cc(n1)-c1cnn(C)c1OCCC[C@@H](C1CC1)CN1/C(=N/C2=O)Nc2cc(NC(C)C3COC3)ccc21` (stereo partly specified) [US20250034165, Example 37] in this work.
An IC50 [1] of 0.52 nM and an IC50 [3] of 0.75 nM were found for `[2H]C([2H])([2H])N(C[C@@H](C)Nc1ccc2c(c1)N/C1=N/C(=O)c3cc(C)nc(c3)-c3cnn(C)c3OCCC[C@@H](C3CC3)CN12)C([2H])([2H])[2H]` [US20250034165, Example 146] in this work.
An IC50 [2] of 0.031 nM, an IC50 [3] of 0.016 nM and an IC50 [4] of 0.77 nM were found for `Cc1cc2cc(n1)-c1cnn(C)c1OCCC[C@@H](C1CC1)CN1/C(=N/C2=O)Nc2cc(NC(C)CN(C)C)ccc21` (stereo partly specified) [US20250034165, Example 62] in this work.
An IC50 [1] of 0.023 nM and an IC50 [4] of 0.51 nM were found for `CCN1CCC(Nc2ccc3c(c2)N/C2=N\C(=O)c4cc(C)nc(c4)-c4cnn(C)c4OCCC[C@@H](C4CC4)CN23)CC1` [US20250034165, Example 48] in this work.
An IC50 [2] of 0.02 nM, an IC50 [3] of 0.019 nM and an IC50 [4] of 0.12 nM were found for `Cc1cc2cc(n1)-c1cnn(C)c1OCCC[C@@H](C1CC1)CN1/C(=N/C2=O)Nc2cc(NC3CCN(C)CC3)ccc21` [US20250034165, Example 10] in this work.
An IC50 [2] of 0.13 nM, an IC50 [3] of 0.12 nM and an IC50 [4] of 2.8 nM were found for `Cc1cc2cc(n1)-c1cnn(C)c1OCCC[C@@H](C1CC1)CN1/C(=N/C2=O)Nc2cc(NC3COC3(C)C)ccc21` (stereo partly specified) [US20250034165, Example 30] in this work.
An IC50 [2] of 0.017 nM, an IC50 [3] of 0.025 nM and an IC50 [4] of 0.39 nM were found for `Cc1cc2cc(n1)-c1cnn(C)c1OCCC[C@@H](C1CC1)CN1/C(=N/C2=O)Nc2ccc(NC3CCN(C(C)C)CC3)cc21` [US20250034165, Example 54] in this work.
An IC50 [1] of 0.048 nM, an IC50 [3] of 0.051 nM and an IC50 [4] of 2.2 nM were found for `CNCCCNc1ccc2c(c1)N/C1=N\C(=O)c3cc(C)nc(c3)-c3cnn(C)c3OCCC[C@@H](C3CC3)CN12` [US20250034165, Example 49] in this work.
An IC50 [2] of 0.011 nM, an IC50 [3] of 0.008 nM and an IC50 [4] of 0.7 nM were found for `Cc1cc2cc(n1)-c1cnn(C3CC3)c1OCCC[C@@H](C)CN1/C(=N/C2=O)Nc2ccc(NCCN(C)C)cc21` [US20250034165, Example 17] in this work.
An IC50 [2] of 0.007 nM, an IC50 [3] of 0.123 nM and an IC50 [4] of 6.2 nM were found for `Cc1cc2cc(n1)-c1cnn(C)c1OCCC[C@@H](C1CC1)CN1/C(=N/C2=O)Nc2cc(NC3CCC3)ccc21` [US20250034165, Example 79] in this work.
An IC50 [1] of 0.22 nM and an IC50 [3] of 0.16 nM were found for `[2H]C([2H])([2H])N(C[C@H](C)Nc1ccc2c(c1)N/C1=N/C(=O)c3cc(C)nc(c3)-c3cnn(C)c3OCCC[C@@H](C3CC3)CN12)C([2H])([2H])[2H]` [US20250034165, Example 124] in this work.
An IC50 [2] of 0.088 nM, an IC50 [3] of 0.095 nM and an IC50 [4] of 2 nM were found for `Cc1cc2cc(n1)-c1cnn(C3CC3)c1OCCC[C@@H](C)CN1/C(=N/C2=O)Nc2cc(N[C@@H]3CCOC3)ccc21` [US20250034165, Example 13] in this work.
An IC50 [2] of 0.018 nM, an IC50 [3] of 0.021 nM and an IC50 [4] of 1.1 nM were found for `Cc1cc2cc(n1)-c1cnn(C)c1OCCC[C@@H](C1CC1)CN1/C(=N/C2=O)Nc2cc(N(C)C3COC3)ccc21` [US20250034165, Example 41] in this work.
An IC50 [2] of 0.013 nM, an IC50 [3] of 0.011 nM and an IC50 [4] of 0.68 nM were found for `Cc1cc2cc(n1)-c1cnn(C)c1OCCC[C@@H](C1CC1)CN1/C(=N/C2=O)Nc2cc(NCCN(C)C)ccc21` [US20250034165, Example 42] in this work.
An IC50 [2] of 0.01 nM, an IC50 [3] of 0.007 nM and an IC50 [4] of 0.36 nM were found for `Cc1cc2cc(n1)-c1cnn(C)c1OCCC[C@@H](C1CC1)CN1/C(=N/C2=O)Nc2cc(NCCCN(C)C)ccc21` [US20250034165, Example 44] in this work.
An IC50 [1] of 0.026 nM, an IC50 [3] of 0.035 nM and an IC50 [4] of 0.57 nM were found for `CNCCCCNc1ccc2c(c1)N/C1=N/C(=O)c3cc(C)nc(c3)-c3cnn(C)c3OCCC[C@@H](C3CC3)CN12` [US20250034165, Example 52] in this work.
An IC50 [2] of 0.19 nM, an IC50 [3] of 0.2 nM and an IC50 [4] of 2.6 nM were found for `Cc1cc2cc(n1)-c1cnn(C3CC3)c1OCCC[C@@H](C)CN1/C(=N/C2=O)Nc2cc(NC3CCN(C)CC3)ccc21` [US20250034165, Example 12] in this work.
An IC50 [2] of 0.031 nM, an IC50 [3] of 0.019 nM and an IC50 [4] of 0.56 nM were found for `Cc1cc2cc(n1)-c1cnn(C)c1OCCC[C@@H](C1CC1)CN1/C(=N/C2=O)Nc2ccc(NCCCN3CCCCC3)cc21` [US20250034165, Example 80] in this work.
